Results published in paper PMC7179119, “A New Positron Emission Tomography Probe for Orexin Receptors Neuroimaging” (Molecules, 2020).
Read-outs that look alike come from different tables or passages of the source.

Columns and labels:
Experiment in all cases: PDSP off-target radioligand binding assay
[1] = molecular target: T1, 5-HT2A (Homo sapiens, UniProt P28223)
T1 construct: NIMH PDSP
Procedure, shortened: (§1)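 Compound tested at a single 10 µM concentration in quadruplicate in competition with radioligand near its Kd. Nonspecific binding was defined with 10 µM reference compound, incubation was 90 min at room temperature in the dark, and bound radioactivity was collected by filtration and scintillation counting to give % inhibition.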

[2] = molecular target: T2, 5-HT3 (Homo sapiens, UniProt P46098)
T2 construct: NIMH PDSP
T2 sequence (P46098 24-478): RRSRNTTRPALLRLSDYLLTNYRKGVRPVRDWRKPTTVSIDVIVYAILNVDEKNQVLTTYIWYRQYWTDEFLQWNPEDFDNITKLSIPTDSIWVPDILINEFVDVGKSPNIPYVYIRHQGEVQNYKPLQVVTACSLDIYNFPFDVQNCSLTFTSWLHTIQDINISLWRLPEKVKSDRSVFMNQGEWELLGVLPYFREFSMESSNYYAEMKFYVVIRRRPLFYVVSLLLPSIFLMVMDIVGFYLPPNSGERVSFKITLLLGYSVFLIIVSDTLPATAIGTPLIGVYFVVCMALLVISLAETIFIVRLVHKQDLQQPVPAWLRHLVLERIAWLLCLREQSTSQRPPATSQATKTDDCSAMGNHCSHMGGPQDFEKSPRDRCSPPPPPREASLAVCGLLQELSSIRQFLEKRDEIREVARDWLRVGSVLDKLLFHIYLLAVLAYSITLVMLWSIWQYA
Procedure, shortened: as §1

[3] = molecular target: T3, 5-HT5A (Homo sapiens, UniProt P47898)
T3 construct: NIMH PDSP
Procedure, shortened: as §1

[4] = molecular target: T4, Alpha2B (Homo sapiens, UniProt P18089)
T4 construct: NIMH PDSP
T4 sequence (P18089 1-450): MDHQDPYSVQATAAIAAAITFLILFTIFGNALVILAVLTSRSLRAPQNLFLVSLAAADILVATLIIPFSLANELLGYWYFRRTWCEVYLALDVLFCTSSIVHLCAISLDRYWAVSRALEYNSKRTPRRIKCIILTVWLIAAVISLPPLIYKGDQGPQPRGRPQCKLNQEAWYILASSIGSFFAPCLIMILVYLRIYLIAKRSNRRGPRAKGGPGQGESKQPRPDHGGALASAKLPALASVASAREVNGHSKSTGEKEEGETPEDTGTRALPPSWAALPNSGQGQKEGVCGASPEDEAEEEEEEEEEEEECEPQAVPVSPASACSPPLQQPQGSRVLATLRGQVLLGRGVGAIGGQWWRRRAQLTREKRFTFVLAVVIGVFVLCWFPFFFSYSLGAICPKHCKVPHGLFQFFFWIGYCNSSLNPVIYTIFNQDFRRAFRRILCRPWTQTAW
Procedure, shortened: as §1

[5] = molecular target: T5, Alpha2C (Homo sapiens, UniProt P18825)
T5 construct: NIMH PDSP
T5 sequence (P18825 1-462): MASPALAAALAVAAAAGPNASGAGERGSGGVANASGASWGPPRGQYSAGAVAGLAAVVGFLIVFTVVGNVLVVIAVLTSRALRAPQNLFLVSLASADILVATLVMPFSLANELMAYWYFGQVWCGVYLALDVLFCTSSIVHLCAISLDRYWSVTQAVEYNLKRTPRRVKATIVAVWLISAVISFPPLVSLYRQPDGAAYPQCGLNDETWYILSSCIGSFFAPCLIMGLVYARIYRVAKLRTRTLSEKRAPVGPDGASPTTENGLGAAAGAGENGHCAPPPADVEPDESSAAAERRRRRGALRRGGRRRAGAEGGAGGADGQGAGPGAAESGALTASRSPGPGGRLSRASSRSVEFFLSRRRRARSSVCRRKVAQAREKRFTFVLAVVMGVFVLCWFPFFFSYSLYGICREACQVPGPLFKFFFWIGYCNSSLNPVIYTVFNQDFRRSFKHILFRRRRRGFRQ
Procedure, shortened: as §1

[6] = molecular target: T6, D2 (Homo sapiens, UniProt P14416)
T6 construct: NIMH PDSP
Procedure, shortened: as §1

[7] = molecular target: DAT (Homo sapiens, UniProt Q01959)
Procedure, shortened: as §1

[8] = molecular target: H3 (Homo sapiens, UniProt Q9Y5N1)
Procedure, shortened: as §1

[9] = quadruplicate, read-out: Mean±SD % inhibition
[10] = replicate 1, read-out: % Inhibition 1
[11] = replicate 2, read-out: % Inhibition 2
[12] = replicate 3, read-out: % Inhibition 3
[13] = replicate 4, read-out: % Inhibition 4

Chain of H3 (Q9Y5N1 whole entry): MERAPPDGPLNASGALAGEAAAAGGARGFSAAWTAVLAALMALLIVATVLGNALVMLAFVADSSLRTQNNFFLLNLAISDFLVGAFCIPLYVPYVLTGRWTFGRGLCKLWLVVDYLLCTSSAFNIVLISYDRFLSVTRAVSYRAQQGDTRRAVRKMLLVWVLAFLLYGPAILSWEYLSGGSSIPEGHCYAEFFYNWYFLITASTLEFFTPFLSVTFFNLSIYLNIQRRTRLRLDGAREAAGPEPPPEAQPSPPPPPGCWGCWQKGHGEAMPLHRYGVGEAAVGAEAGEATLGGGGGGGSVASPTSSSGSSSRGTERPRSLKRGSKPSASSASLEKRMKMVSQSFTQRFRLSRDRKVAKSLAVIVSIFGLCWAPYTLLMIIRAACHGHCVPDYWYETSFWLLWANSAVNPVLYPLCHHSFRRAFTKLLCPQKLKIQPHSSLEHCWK
T1 sequence (P28223 whole entry, species assumed): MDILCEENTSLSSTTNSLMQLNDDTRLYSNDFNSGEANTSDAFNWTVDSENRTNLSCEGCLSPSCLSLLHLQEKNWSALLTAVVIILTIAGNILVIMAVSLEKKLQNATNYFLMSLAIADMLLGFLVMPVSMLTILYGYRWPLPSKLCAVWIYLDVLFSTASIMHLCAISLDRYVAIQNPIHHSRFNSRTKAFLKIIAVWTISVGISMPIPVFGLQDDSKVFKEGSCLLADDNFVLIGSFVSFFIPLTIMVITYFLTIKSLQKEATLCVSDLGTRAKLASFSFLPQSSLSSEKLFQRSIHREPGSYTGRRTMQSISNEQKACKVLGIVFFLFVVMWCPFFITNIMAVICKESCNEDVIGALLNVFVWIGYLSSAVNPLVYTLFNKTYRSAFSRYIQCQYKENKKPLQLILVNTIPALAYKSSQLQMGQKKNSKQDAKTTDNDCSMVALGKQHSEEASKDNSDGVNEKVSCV
T6 sequence (P14416 whole entry): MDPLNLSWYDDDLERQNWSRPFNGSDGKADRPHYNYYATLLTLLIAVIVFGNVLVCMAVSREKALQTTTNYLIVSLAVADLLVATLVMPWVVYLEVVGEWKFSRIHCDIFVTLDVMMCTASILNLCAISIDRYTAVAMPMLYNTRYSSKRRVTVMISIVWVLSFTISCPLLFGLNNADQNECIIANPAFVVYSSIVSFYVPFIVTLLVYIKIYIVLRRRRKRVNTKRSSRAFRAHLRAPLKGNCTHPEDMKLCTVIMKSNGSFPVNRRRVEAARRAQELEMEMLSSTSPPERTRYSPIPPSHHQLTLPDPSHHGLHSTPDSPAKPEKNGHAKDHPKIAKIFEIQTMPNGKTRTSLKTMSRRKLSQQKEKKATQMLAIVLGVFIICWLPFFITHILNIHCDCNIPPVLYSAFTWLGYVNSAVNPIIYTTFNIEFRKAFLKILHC
T3 sequence (P47898 whole entry, species assumed): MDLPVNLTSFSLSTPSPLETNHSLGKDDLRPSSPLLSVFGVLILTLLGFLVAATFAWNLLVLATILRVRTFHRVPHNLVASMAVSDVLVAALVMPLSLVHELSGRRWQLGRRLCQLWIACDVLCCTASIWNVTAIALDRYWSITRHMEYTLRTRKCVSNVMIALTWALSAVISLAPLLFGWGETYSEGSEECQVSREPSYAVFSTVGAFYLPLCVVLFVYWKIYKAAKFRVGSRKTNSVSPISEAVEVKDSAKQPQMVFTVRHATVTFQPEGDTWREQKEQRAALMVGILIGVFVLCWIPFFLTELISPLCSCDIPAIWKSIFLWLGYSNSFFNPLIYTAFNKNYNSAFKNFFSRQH
Chain of DAT (Q01959 whole entry, species assumed): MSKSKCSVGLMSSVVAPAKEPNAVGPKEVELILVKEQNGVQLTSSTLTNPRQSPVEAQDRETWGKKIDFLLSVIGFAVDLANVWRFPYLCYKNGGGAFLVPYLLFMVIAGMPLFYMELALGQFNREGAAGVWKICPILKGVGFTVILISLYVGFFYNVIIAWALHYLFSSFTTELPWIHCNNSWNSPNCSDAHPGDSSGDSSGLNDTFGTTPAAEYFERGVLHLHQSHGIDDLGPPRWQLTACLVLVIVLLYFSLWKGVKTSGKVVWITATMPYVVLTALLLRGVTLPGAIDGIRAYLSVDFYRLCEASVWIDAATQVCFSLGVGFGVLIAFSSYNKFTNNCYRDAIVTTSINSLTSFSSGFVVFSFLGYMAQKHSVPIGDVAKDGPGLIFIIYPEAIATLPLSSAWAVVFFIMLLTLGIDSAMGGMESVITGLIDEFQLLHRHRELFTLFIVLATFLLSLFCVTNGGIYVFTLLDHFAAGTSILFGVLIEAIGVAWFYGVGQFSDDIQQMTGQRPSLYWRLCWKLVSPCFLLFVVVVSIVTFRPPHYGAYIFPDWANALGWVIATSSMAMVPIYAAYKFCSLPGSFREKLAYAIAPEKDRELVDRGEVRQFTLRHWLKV

COc1ccnc(N2CCC3(CCCN(Cc4cn(C)c5ccccc45)C3=O)CC2)n1 [CW24]
inhibition at 10 µM [1, 9]: 12.3 ± 15.4% | inhibition at 10 µM [1, 10]: 25.7% | inhibition at 10 µM [1, 11]: 20.1% | inhibition at 10 µM [1, 12]: 12.8% | inhibition at 10 µM [1, 13]: -9.45% | inhibition at 10 µM [2, 9]: -4 ± 15.6% | inhibition at 10 µM [2, 10]: -7.18% | inhibition at 10 µM [2, 11]: 2.23% | inhibition at 10 µM [2, 12]: -23.9% | inhibition at 10 µM [2, 13]: 12.9% | inhibition at 10 µM [3, 9]: -4.44 ± 7.73% | inhibition at 10 µM [3, 10]: 5.59% | inhibition at 10 µM [3, 11]: -6.33% | inhibition at 10 µM [3, 12]: -13.1% | inhibition at 10 µM [3, 13]: -3.89% | inhibition at 10 µM [4, 9]: -9.5 ± 13.4% | inhibition at 10 µM [4, 10]: -8.15% | inhibition at 10 µM [4, 11]: -23.6% | inhibition at 10 µM [4, 12]: -14.5% | inhibition at 10 µM [4, 13]: 8.29% | inhibition at 10 µM [5, 9]: 11.1 ± 20.6% | inhibition at 10 µM [5, 10]: 38.6% | inhibition at 10 µM [5, 11]: 2.3% | inhibition at 10 µM [5, 12]: -9.91% | inhibition at 10 µM [5, 13]: 13.3% | inhibition at 10 µM [6, 9]: -1.7 ± 19.3% | inhibition at 10 µM [6, 10]: -8.12% | inhibition at 10 µM [6, 11]: 21.4% | inhibition at 10 µM [6, 12]: -24.2% | inhibition at 10 µM [6, 13]: 4.13% | inhibition at 10 µM [7, 9]: 4.6 ± 8.8% | inhibition at 10 µM [7, 10]: -0.27% | inhibition at 10 µM [7, 11]: -4.72% | inhibition at 10 µM [7, 12]: 8.47% | inhibition at 10 µM [7, 13]: 14.9% | inhibition at 10 µM [8, 9]: -9.38 ± 11.9% | inhibition at 10 µM [8, 10]: -25% | inhibition at 10 µM [8, 11]: -12.5% | inhibition at 10 µM [8, 12]: 0% | inhibition at 10 µM [8, 13]: 0%
